Source: patent publication US20210236575A1 (priority 2018, published 2021)
Where two headings read alike, the source gives them in different places.

Columns and labels:
[1] = target: CB2R (Homo sapiens, UniProt P34972); experiment: CB2R agonism assay, HEK293T-CB2 cells with CRE-Luc reporter, forskolin-stimulated; conditions: for Conclusions: Is CB2R agonist effect observed? / Experiment 1 % of activity / Experiment 2 % of activity / Experiment 3 % of activity: THC 10 μM or THCA 10 μM alone; for Experiment 1 % of activity / Experiment 2 % of activity / Experiment 3 % of activity: forskolin = 100%
[2] = tested on: NF-κB; experiment: NF-κB luciferase assay, TNFα-induced, NIH-3T3-KBF-Luc cells
[3] = target: T1, CB1R (Homo sapiens, UniProt P21554); assay type: cell-based
T1 construct: expressed in transfected cells; host or cells: HEK293T (HEK293T-CB1), transiently co-transfected with CRE-luc reporter

[4] = target: T1, CB1R; experiment: cell-based
[5] = target: T2, COX-2 (Homo sapiens, UniProt P35354); conditions: Takeda et al 2008; cited from earlier work
T2 sequence (P35354 18-604): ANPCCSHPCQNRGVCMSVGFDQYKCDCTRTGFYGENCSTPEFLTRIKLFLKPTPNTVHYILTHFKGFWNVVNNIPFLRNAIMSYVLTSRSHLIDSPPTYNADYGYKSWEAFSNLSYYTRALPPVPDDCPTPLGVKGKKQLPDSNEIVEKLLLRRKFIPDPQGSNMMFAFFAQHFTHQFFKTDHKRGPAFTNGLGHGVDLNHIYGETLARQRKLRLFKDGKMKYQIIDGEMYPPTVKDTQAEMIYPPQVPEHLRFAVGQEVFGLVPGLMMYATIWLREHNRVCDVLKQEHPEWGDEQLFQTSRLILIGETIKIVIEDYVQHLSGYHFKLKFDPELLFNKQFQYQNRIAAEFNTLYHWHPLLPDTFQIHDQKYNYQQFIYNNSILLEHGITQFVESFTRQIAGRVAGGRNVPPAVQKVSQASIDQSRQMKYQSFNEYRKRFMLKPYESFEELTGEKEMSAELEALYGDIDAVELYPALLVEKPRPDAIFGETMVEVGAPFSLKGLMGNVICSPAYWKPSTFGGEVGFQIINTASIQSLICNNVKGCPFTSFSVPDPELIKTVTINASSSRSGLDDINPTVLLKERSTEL

[6] = read-out: Experiment 1 % of activity
[7] = read-out: Experiment 2 % of activity
[8] = read-out: Experiment 3 % of activity
[9] = TNFα 30 ng/mL (control without inhibitor)
[10] = THCA 10 μM or THC 10 μM alone, CP55940 = 100%
[11] = THC 10 μM or CBD 10 μM alone, TNFα = 100%

T1 sequence (P21554 whole entry): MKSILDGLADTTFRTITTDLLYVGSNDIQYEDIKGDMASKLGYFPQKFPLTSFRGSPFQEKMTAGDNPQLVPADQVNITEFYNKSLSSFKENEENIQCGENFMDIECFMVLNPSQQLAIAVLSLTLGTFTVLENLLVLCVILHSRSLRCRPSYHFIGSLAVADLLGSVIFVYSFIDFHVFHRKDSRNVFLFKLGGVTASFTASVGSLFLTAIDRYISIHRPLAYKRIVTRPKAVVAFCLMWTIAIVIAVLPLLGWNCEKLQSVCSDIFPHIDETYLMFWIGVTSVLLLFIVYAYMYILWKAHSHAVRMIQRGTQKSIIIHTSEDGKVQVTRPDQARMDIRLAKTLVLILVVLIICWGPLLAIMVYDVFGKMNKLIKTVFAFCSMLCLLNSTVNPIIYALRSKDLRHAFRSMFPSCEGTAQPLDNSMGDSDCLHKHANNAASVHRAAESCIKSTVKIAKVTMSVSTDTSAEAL
Chain of CB2R (P34972 whole entry): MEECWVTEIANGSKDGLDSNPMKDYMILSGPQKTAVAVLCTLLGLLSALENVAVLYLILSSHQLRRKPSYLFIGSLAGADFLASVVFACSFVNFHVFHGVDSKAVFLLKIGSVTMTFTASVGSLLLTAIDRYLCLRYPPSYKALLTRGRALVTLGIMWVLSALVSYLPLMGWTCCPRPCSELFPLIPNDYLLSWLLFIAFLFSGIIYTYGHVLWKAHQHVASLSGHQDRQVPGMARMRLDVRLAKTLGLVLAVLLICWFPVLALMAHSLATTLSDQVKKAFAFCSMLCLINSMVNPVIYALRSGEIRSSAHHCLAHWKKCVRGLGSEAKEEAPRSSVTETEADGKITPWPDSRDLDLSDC

Compound: C=C[C@@]1(C)CC(=O)[C@]2(O)[C@@]3(C)[C@@H](O)CCC(C)(C)[C@@H]3[C@H](O)[C@H](OC(C)=O)[C@@]2(C)O1 [Forskolin]
- activity at 1 µM [1, 6]: 100%
- activity at 1 µM [1, 7]: 100%
- activity at 1 µM [1, 8]: 100%

Compound: TNFα
- Conclusions: Is NF-κB inhibitor effect observed? [2, 9]: Negative
- Experiment 1 % of activity [2, 9]: 100.0%
- Experiment 2 % of activity [2, 9]: 100.0%
- Experiment 3 % of activity [2, 9]: 100.0%

Compound: CCCCCc1cc2c(c(O)c1C(=O)O)[C@@H]1C=C(C)CC[C@H]1C(C)(C)O2 [THCA, tetrahydrocannabinolic acid]
- Conclusions: Is CB1R agonist effect observed? ([3]; THCA 10 μM or THC 10 μM alone): Negative
- Experiment 1 Fold change ([3]; THCA 10 μM or THC 10 μM alone): 0.9 fold
- Experiment 2 Fold change ([3]; THCA 10 μM or THC 10 μM alone): 0.8 fold
- Experiment 3 Fold change ([3]; THCA 10 μM or THC 10 μM alone): 1.1 fold
- Conclusions: Is CB1R antagonist effect observed? ([4]; THCA 10 μM or THC 10 μM alone): Negative
- Experiment 1 % of activity [4, 10]: 116.7%
- Experiment 2 % of activity [4, 10]: 116.0%
- Experiment 3 % of activity [4, 10]: 56.4%
- Conclusions: Is CB2R agonist effect observed? [1]: Negative
- Experiment 1 % of activity [1]: 115.6%
- Experiment 2 % of activity [1]: 105.6%
- Experiment 3 % of activity [1]: 124.6%

Compound: CCCCCc1cc(O)c2c(c1)OC(C)(C)[C@@H]1CCC(C)=C[C@@H]21 [THC, tetrahydrocannabinol]
- Conclusions: Is NF-κB inhibitor effect observed? ([2]; THC 10 μM or CBD 10 μM alone): Negative
- Experiment 1 % of activity [2, 11]: 122.2%
- Experiment 2 % of activity [2, 11]: 84.9%
- Experiment 3 % of activity [2, 11]: 88.8%
- Conclusions: Is CB2R agonist effect observed? [1]: Negative
- Experiment 1 % of activity [1]: 54.7%
- Experiment 2 % of activity [1]: 73.7%
- Experiment 3 % of activity [1]: 60.3%

Compound: C=C(C)[C@@H]1CCC(C)=C[C@H]1c1c(O)cc(CCCCC)cc1O [CBD, cannabidiol]
- Conclusions: Is CB1R antagonist effect observed? ([4]; CBD 1 μM alone): Negative
- activity at 1 µM ([4]; CBD 1 μM alone, CP55940 = 100%, read-out: Experiment 1 % of activity): 61.3%
- activity at 1 µM ([4]; CBD 1 μM alone, CP55940 = 100%, read-out: Experiment 2 % of activity): 55.9%
- activity at 1 µM ([4]; CBD 1 μM alone, CP55940 = 100%, read-out: Experiment 3 % of activity): 57.4%
- Conclusions: Is NF-κB inhibitor effect observed? ([2]; THC 10 μM or CBD 10 μM alone): Negative
- activity at 10 µM [2, 6]: 136%
- activity at 10 µM [2, 7]: 86.4%
- activity at 10 µM [2, 8]: 106%

Compound: COc1cc(/C=C/C(=O)CC(=O)/C=C/c2ccc(O)c(OC)c2)ccc1O [Curcumin, diferuloylmethane (curcumin)]
- Conclusions: Is NF-κB inhibitor effect observed? ([2]; Curcumin 5 μM, alone or + THC 10 μM or + CBD 10 μM): + (positive result (activity ≤50%) are considered inhibitory of NF-κB activity)
- Conclusions: Is NF-κB inhibitor effect observed? ([2]; Curcumin 10 μM, alone or + THC 10 μM or + CBD 10 μM): + (positive result (activity ≤50%) are considered inhibitory of NF-κB activity)
- Conclusions: Is NF-κB inhibitor effect observed? ([2]; Curcumin 15 μM, alone or + THC 10 μM or + CBD 10 μM): + (positive result (activity ≤50%) are considered inhibitory of NF-κB activity)
- IC50 ([2]; read-out: anti-NF-κB IC50): 3.91 µM
- EC50 [1]: 5970 µM

Compound: C=C(C)[C@@H]1CCC(C)=C[C@H]1c1c(O)cc(CCCCC)c(C(=O)O)c1O [CBDA, cannabidiolic acid]
- selectivity for COX-2 than COX-1 inhibition [5]: 9 fold

Compound: CCCCCCC(C)(C)c1ccc([C@@H]2C[C@H](O)CC[C@H]2CCCO)c(O)c1 [CP]
- Conclusions: Is CB1R agonist effect observed? [3]: + (key: +: positive result (CB1R activity ≥2.5-fold increase) are considered agonists of CB1R activity)
- Experiment 1 Fold change [3]: 2.5 fold
- Experiment 2 Fold change [3]: 2.5 fold
- Experiment 3 Fold change [3]: 2.5 fold
- Conclusions: Is CB1R antagonist effect observed? [4]: Negative
- activity at 5 µM [4, 6]: 100%
- activity at 5 µM [4, 7]: 100%
- activity at 5 µM [4, 8]: 100%
